Laboratory results: US10556865B2, “Synergistic herbicidal composition containing certain pyridine or pyrimidine carboxylic acids and certain cereal and rice herbicides” (Dow AgroSciences, LLC, priority 2007, dated 2020)

Experiments:
Format in all cases: in vivo
[1] = tested on: Echinochloa species (ECHSS); assay: Herbicidal mixtures for weed control in transplanted paddy rice (in-water application, visual % injury after 3 weeks); details: for % Injury ECHOR Ob: ECHOR = Echinocloa oryzoides; for % Injury ECHCG Ob: ECHCG = Echinochloa crus-galli
Summary of the method: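 Flooded pots of puddled soil (54 percent sand, pH about 7.3 to 7.8) held weeds grown 4-14 days at about 29° C day, 26° C night. The herbicides, alone and in mixtures, were injected into the paddy water, then plants were scored visually for percent injury after 3 weeks.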

[2] = tested on: Fimbristylis miliacea (L.) VAHL (FIMMI); assay: Postemergence herbicidal mixtures for weed control in direct seeded rice (greenhouse, visual % injury); details: FIMMI
[3] = tested on: canola (Brassica napus L; BRSNN); assay: Postemergence herbicidal activity of mixtures in cereal crops (greenhouse, visual injury)
Summary of the method: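 Injury ratings (0–100%) taken 20–22 days post-spray versus solvent-blank controls. Treatment: 187 L/ha track spray, 2nd–3rd leaf plants, Compound A/B with second cereal herbicide.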

[4] = Compound A TEA 35 g/ha alone (Table 111)

COC(=O)c1nc(-c2ccc(Cl)c(OC)c2F)cc(N)c1Cl [Compound A Methyl, 4-amino-3-chloro-6-(4-chloro-2-fluoro-3-methoxyphenyl)pyridine-2-carboxylic acid methyl ester]
% Injury Ob ([1]; ECHCG, 4.38 g/ha alone): 0%
% Injury Ob ([1]; ECHCG, 17.5 g/ha alone): 0%
% Injury Ob ([1]; ECHCG, 35 g/ha alone): 25%
% Injury Ob ([1]; ECHCO, 8.75 g/ha alone): 0%
% Injury Ob ([1]; ECHCO, 17.5 g/ha alone): 25%
% Injury Ob ([1]; ECHCO, 35 g/ha alone): 20%
% Injury ECHOR Ob ([1]; Compound A Methyl 17.5 g/ha alone): 0%
% Injury ECHOR Ob ([1]; Compound A Methyl 35 g/ha alone): 10%
% Injury Ob ([2]; 4.38 g/ha alone): 20%
% Injury Ob ([2]; 8.75 g/ha alone): 40%
BRSNN Ob ([3]; 8.75 g/ha): 50%
BRSNN Ob ([3]; 17.5 g/ha): 50%
BRSNN Ob ([3]; 35 g/ha): 50%
BRSNN Ob ([3]; 70 g/ha): 50%

COc1c(Cl)ccc(-c2cc(N)c(Cl)c(C(=O)O)n2)c1F [Compound A TEA, 4-amino-3-chloro-6-(4-chloro-2-fluoro-3-methoxyphenyl)pyridine-2-carboxylic acid]
% Injury ECHCG Ob ([1]; Compound A TEA 17.5 g/ha alone): 10%
% Injury ECHCG Ob ([1]; Compound A TEA 35 g/ha alone): 80%
% Injury ECHCG Ob [1, 4]: 10%
% Injury Ob ([1]; ECHCG, 70 g/ha alone): 50%
% Injury ECHOR Ob ([1]; Compound A TEA 17.5 g/ha alone (Table 113)): 0%
% Injury ECHOR Ob [1, 4]: 10%
% Injury ECHOR Ob ([1]; Compound A TEA 35 g/ha alone (Table 113)): 10%

COC(=O)c1nc(-c2ccc(Cl)c(OC)c2F)nc(N)c1Cl [Compound B Methyl, 6-amino-5-chloro-2-(4-chloro-2-fluoro-3-methoxyphenyl)pyrimidine-4-carboxylic acid methyl ester]
BRSNN Ob ([3]; 8.75 g/ha alone): 20%
BRSNN Ob ([3]; 17.5 g/ha alone): 35%
BRSNN Ob ([3]; 35 g/ha alone): 50%
BRSNN Ob ([3]; 70 g/ha alone): 55%

O=C(O)c1c(Cl)ccc2cc(Cl)cnc12 [Quinclorac]
% Injury ECHCG Ob ([1]; Quinclorac 70 g/ha alone): 0%
% Injury ECHCG Ob ([1]; Quinclorac 140 g/ha alone): 0%
% Injury ECHOR Ob ([1]; Quinclorac 70 g/ha alone): 0%
% Injury Ob ([2]; 140 g/ha alone): 0%
